Measurements reported in patent publication US12275729B2 (Merck Sharp & Dohme LLC, priority 2017, dated 2025).

These compounds were tested against IDO1 (Homo sapiens, UniProt P14902) (assay: IDO1 Cellular Assay in HeLa Cells Stimulated with IFNγ). Details: about 48 hours, read-out: Hela IC50.
Type: cell-based

Sequence of IDO1 (P14902 whole entry): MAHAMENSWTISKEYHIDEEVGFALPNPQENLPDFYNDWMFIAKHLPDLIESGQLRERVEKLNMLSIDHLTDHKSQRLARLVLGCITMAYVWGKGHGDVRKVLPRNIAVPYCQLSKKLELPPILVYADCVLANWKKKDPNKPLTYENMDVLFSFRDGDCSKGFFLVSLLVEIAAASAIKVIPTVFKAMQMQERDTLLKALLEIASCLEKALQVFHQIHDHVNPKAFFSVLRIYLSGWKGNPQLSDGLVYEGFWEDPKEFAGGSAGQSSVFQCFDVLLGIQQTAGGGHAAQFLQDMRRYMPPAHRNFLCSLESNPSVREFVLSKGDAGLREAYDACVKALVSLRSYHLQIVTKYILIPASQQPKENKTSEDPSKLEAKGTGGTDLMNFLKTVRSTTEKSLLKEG

**Q.** With `CCOC(=O)N1CCCc2cc(C3(C(=O)Nc4ccc(F)cn4)CCC3)ccc21` [Example 211, ethyl 6-{1-[(5-fluoropyridin-2-yl)carbamoyl]-cyclobutyl}-3,4-dihydroquinoline-1(2H)-carboxylate] as the compound, how does the IC50 read?
**A.** The IC50 was 0.0022 µM.

**Q.** With `CC(NC(=O)c1ccc(F)cc1)c1ccc2c(n1)C(F)(F)CCN2C(=O)C1CC1` (single isomer, unassigned) [Example 195, N-(1-(5-(cyclopropanecarbonyl)-8,8-difluoro-5,6,7,8-tetrahydro-1,5-naphthyridin-2-yl)ethyl)-4-fluorobenzamide] as the compound, how does the IC50 read?
**A.** The IC50 was 9.54 µM.

**Q.** With `CC(NC(=O)c1ccc(F)cc1)c1ccc2c(n1)CCCN2C(=O)c1cccc(C(F)(F)F)c1` (centres unmarked) [Example 284, 2-(1-(4-fluorobenzamido)ethyl)-5-(3-(trifluoromethyl)benzoyl)-5,6,7,8-tetrahydro-1,5-naphthyridin-1-ium 2,2,2-trifluoroacetate] as the compound, how does the IC50 read?
**A.** Its IC50 is 0.0012 µM.

**Q.** With `O=C(NC1(c2ccc3c(n2)CCCN3c2ccncn2)CC1)c1ccc(F)cc1` [Example 246, 4-fluoro-N-(1-(5-(pyrimidin-4-yl)-5,6,7,8-tetrahydro-1,5-naphthyridin-2-yl)cyclopropyl)benzamide] as the compound, how does the IC50 read?
**A.** The IC50 was 0.0093 µM.

**Q.** `CC(C)(O)c1cccc(N2CCCc3nc(C4(NC(=O)c5ccc(F)cc5)CC4)ccc32)n1` [Example 297, 4-fluoro-N-(1-(5-(6-(2-hydroxypropan-2-yl)pyridin-2-yl)-5,6,7,8-tetrahydro-1,5-naphthyridin-2-yl)cyclopropyl)benzamide] was tested. Which IC50 did it give?
**A.** The IC50 was 0.0464 µM.

**Q.** For `COc1ccc(C(=O)NCc2ccc3c(c2)CCCN3C(=O)CC(C)C)cc1` [Example 6, 4-methoxy-N-{[1-(3-methylbutanoyl)-1,2,3,4-tetrahydroquinolin-6-yl]methyl}benzamide], which IC50 is on record?
**A.** Its IC50 is 0.0564 µM.

**Q.** How did the IC50 turn out when `CC(=O)N1CCCc2nc(C3(NC(=O)c4ccc(F)cc4)CC3)ccc21` [Example 174, N-[1-(5-acetyl-5,6,7,8-tetrahydro-1,5-naphthyridin-2-yl)cyclopropyl]-4-fluorobenzamide] was run?
**A.** Its IC50 is 0.266 µM.

**Q.** With `CC(C)[C@@H](O)C(=O)N1CCCc2cc([C@H](C)C(=O)Nc3ccc(F)cc3)ccc21` (single isomer, unassigned) [Example 72] as the compound, how does the IC50 read?
**A.** Its IC50 is 0.0438 µM.

**Q.** Which IC50 does the source give for `COC(=O)N1CCCc2cc(C3(C(=O)Nc4ccc(F)cn4)CCC3)ccc21` [Example 206, methyl 6-{1-[(5-fluoropyridin-2-yl)carbamoyl]cyclobutyl}-3,4-dihydroquinoline-1(2H)-carboxylate] here?
**A.** Its IC50 is 0.0015 µM.

**Q.** Which IC50 does the source give for `O=C(NC1(c2ccc3c(n2)CCCN3C(=O)NC2CC2)CC1)c1ccc(F)cc1` [Example 214, N-cyclopropyl-6-{1-[(4-fluorobenzene-1-carbonyl)amino]cyclopropyl}-3,4-dihydro-1,5-naphthyridine-1(2H)-carboxamide] here?
**A.** Its IC50 is 0.159 µM.

**Q.** How did the IC50 turn out when `O=C(C1CCOCC1)N1CCCc2nc(C3(C(=O)Nc4ccc(F)cc4)CCC3)ccc21` [Example 181, N-(4-fluorophenyl)-1-[5-(oxane-4-carbonyl)-5,6,7,8-tetrahydro-1,5-naphthyridin-2-yl]cyclobutane-1-carboxamide] was run?
**A.** Its IC50 is 0.0031 µM.

**Q.** For `O=C(C1CCCCO1)N1CCCc2nc(C3(C(=O)Nc4ccc(F)cc4)CCC3)ccc21` (single isomer, unassigned) [Example 178, N-(4-fluorophenyl)-1-[5-(oxane-2-carbonyl)-5,6,7,8-tetrahydro-1,5-naphthyridin-2-yl]cyclobutane-1-carboxamide], which IC50 is on record?
**A.** The IC50 was 0.0016 µM.

**Q.** With `CC(NC(=O)c1ccc(F)cc1)c1ccc2c(n1)C(O)CCN2C(=O)C1CC1` (single isomer, unassigned) [Example 198, N-(1-(5-(cyclopropanecarbonyl)-8-hydroxy-5,6,7,8-tetrahydro-1,5-naphthyridin-2-yl)ethyl)-4-fluorobenzamide] as the compound, how does the IC50 read?
**A.** Its IC50 is 0.393 µM.

**Q.** Which IC50 does the source give for `CC(NC(=O)c1ccc(F)cc1)c1ccc2c(n1)CCCN2C(=O)c1ncccc1F` (centres unmarked) [Example 283, 2-(1-(4-fluorobenzamido)ethyl)-5-(3-fluoropicolinoyl)-5,6,7,8-tetrahydro-1,5-naphthyridin-1-ium 2,2,2-trifluoroacetate] here?
**A.** Its IC50 is 0.0022 µM.

**Q.** `CC(C(=O)Nc1ccc(F)cc1)c1ccc2c(n1)CCCN2C(=O)C1CCCCO1` (single isomer, unassigned) [Example 161, N-(4-fluorophenyl)-2-[5-(oxane-2-carbonyl)-5,6,7,8-tetrahydro-1,5-naphthyridin-2-yl]propanamide] was tested. Which IC50 did it give?
**A.** The IC50 was 0.0056 µM.

**Q.** Which IC50 does the source give for `CO[C@H]1C[C@H](C(=O)N2CCCc3cc([C@H](C)C(=O)Nc4ccc(F)cc4)ccc32)C1` [Example 86, (2S)-N-(4-fluorophenyl)-2-[1-(trans-3-methoxycyclobutane-1-carbonyl)-1,2,3,4-tetrahydroquinolin-6-yl]propanamide] here?
**A.** The IC50 was 0.0176 µM.

**Q.** Which IC50 does the source give for `Cc1cnc(C(=O)N2CCCc3cc(C(C)C(=O)Nc4ccc(F)cc4)ccc32)s1` (centres unmarked) [Example 41, N-(4-fluorophenyl)-2-[1-(5-methyl-1,3-thiazole-2-carbonyl)-1,2,3,4-tetrahydroquinolin-6-yl]propanamide] here?
**A.** Its IC50 is 0.0046 µM.

**Q.** `C[C@H](C(=O)Nc1ccc(F)cc1)c1ccc2c(c1)CCCN2C(=O)C1CC(F)(F)C1` [Example 79, (2S)-2-[1-(3,3-difluorocyclobutane-1-carbonyl)-1,2,3,4-tetrahydroquinolin-6-yl]-N-(4-fluorophenyl)propanamide] was tested. Which IC50 did it give?
**A.** Its IC50 is 0.0347 µM.

**Q.** How did the IC50 turn out when `Cc1cc(C(=O)N2CCCc3cc(C4(C(=O)Nc5ccc(F)cn5)CCC4)ccc32)ncn1` [Example 107, N-(5-fluoropyridin-2-yl)-1-[1-(6-methylpyrimidine-4-carbonyl)-1,2,3,4-tetrahydroquinolin-6-yl]cyclobutane-1-carboxamide] was run?
**A.** Its IC50 is 0.0128 µM.

**Q.** `CC(C)c1cc(C(=O)NCc2ccc3c(c2)CCCN3C(=O)c2cccc(Cl)c2)on1` [Example 18, N-{[1-(3-chlorobenzene-1-carbonyl)-1,2,3,4-tetrahydroquinolin-6-yl]methyl}-3-(propan-2-yl)-1,2-oxazole-5-carboxamide] was tested. Which IC50 did it give?
**A.** Its IC50 is 0.186 µM.

**Q.** Which IC50 does the source give for `COc1ccnc(N2CCCc3nc(C4(NC(=O)c5ccc(F)cc5)CC4)ccc32)n1` [Example 298, 4-fluoro-N-(1-(5-(4-methoxypyrimidin-2-yl)-5,6,7,8-tetrahydro-1,5-naphthyridin-2-yl)cyclopropyl)benzamide] here?
**A.** Its IC50 is 0.0145 µM.

**Q.** How did the IC50 turn out when `COC(=O)N1CCCc2nc(C(C)C(=O)Nc3ccc(Cl)cc3)ccc21` (centres unmarked) [Example 223, methyl 6-{1-[(4-chlorophenyl)amino]-1-oxopropan-2-yl}-3,4-dihydro-1,5-naphthyridine-1(2H)-carboxylate] was run?
**A.** The IC50 was 0.0108 µM.

**Q.** `O=C(c1nnc(C(F)(F)F)[nH]1)N1CCCc2cc(C3(C(=O)Nc4ccc(F)cc4)CCC3)ccc21` [Example 110, N-(4-fluorophenyl)-1-{1-[5-(trifluoromethyl)-4H-1,2,4-triazole-3-carbonyl]-1,2,3,4-tetrahydroquinolin-6-yl}cyclobutane-1-carboxamide] was tested. Which IC50 did it give?
**A.** Its IC50 is 0.248 µM.

**Q.** For `CCn1ccc(C(=O)N2CCCc3nc(C(C)NC(=O)c4ccc(F)cc4)ccc32)n1` (stereo in doubt) [Example 143, N-{(1R)-1-[5-(1-ethyl-1H-pyrazole-3-carbonyl)-5,6,7,8-tetrahydro-1,5-naphthyridin-2-yl]ethyl}-4-fluorobenzamide], which IC50 is on record?
**A.** Its IC50 is 0.0115 µM.

**Q.** How did the IC50 turn out when `CC(C)NC(=O)N1CCCc2nc([C@@H](C)C(=O)Nc3ccc(F)cc3)ccc21` [Example 217, 6-{(2R)-1-[(4-fluorophenyl)amino]-1-oxopropan-2-yl}-N-(propan-2-yl)-3,4-dihydro-1,5-naphthyridine-1(2H)-carboxamide] was run?
**A.** The IC50 was 0.0246 µM.

**Q.** With `C[C@H](C(=O)Nc1ccc(Cl)cc1)c1ccc2c(c1)CCCN2C(=O)c1cccc(Cl)c1` (single isomer, unassigned) [Example 56] as the compound, how does the IC50 read?
**A.** Its IC50 is 0.0031 µM.

**Q.** With `CO[C@@H](C)C(=O)N1CCCc2cc([C@H](C)C(=O)Nc3ccc(F)cc3)ccc21` (single isomer, unassigned) [Example 75] as the compound, how does the IC50 read?
**A.** The IC50 was 0.0618 µM.

**Q.** Which IC50 does the source give for `CC(C)CC(=O)N1CCCc2cc(CNC(=O)c3ccc(Cl)c(Cl)c3)ccc21` [Example 8, 3,4-dichloro-N-{[1-(3-methylbutanoyl)-1,2,3,4-tetrahydroquinolin-6-yl]methyl}benzamide] here?
**A.** Its IC50 is 0.276 µM.

Same assay, conditions: read-out: Hela IC50

**Q.** With `CC(NC(=O)c1ccc(F)cc1)c1ccc2c(n1)CCCN2c1ccc(F)cn1` (centres unmarked) [Example 376, 4-fluoro-N-(1-(5-(5-fluoropyridin-2-yl)-5,6,7,8-tetrahydro-1,5-naphthyridin-2-yl)ethyl)benzamide] as the compound, how does the IC50 read?
**A.** The IC50 was 0.0996 µM.

**Q.** How did the IC50 turn out when `Cc1nccc(N2CCCc3nc(C(C)C(=O)Nc4ccc(F)cc4)ccc32)n1` (centres unmarked) [Example 373, N-(4-fluorophenyl)-2-(5-(2-methylpyrimidin-4-yl)-5,6,7,8-tetrahydro-1,5-naphthyridin-2-yl)propanamide] was run?
**A.** Its IC50 is 0.00638 µM.

**Q.** For `CC(NC(=O)c1ccc(F)cc1)c1ccc2c(n1)CCCN2c1cc(C#N)ccn1` (centres unmarked) [Example 378, N-(1-(5-(4-cyanopyridin-2-yl)-5,6,7,8-tetrahydro-1,5-naphthyridin-2-yl)ethyl)-4-fluorobenzamide], which IC50 is on record?
**A.** The IC50 was 0.352 µM.

**Q.** With `CC(NC(=O)c1ccc(F)cc1)c1ccc2c(n1)CCCN2C(=O)OCc1ccn(C)n1` (centres unmarked) [Example 317, (1-methyl-1H-pyrazol-3-yl)methyl 6-(1-(4-fluorobenzamido)ethyl)-3,4-dihydro-1,5-naphthyridine-1(2H)-carboxylate] as the compound, how does the IC50 read?
**A.** Its IC50 is 0.0211 µM.
